{"source": "patent EP0643964A2", "about": "(priority 1993, dated 1995)", "key": {"herpes simplex": {"test_system": "herpes simplex", "test": "Evolution of recidivant periorificial herpes simplex infection in volunteers", "assay_type": "in vivo, human", "description": "Patients were divided into 3 groups: one of the groups (n=4) received acyclovir by oral route and topical applications of the same drug. […] Experiments began with the appearance of the next episode of herpes, just in the moment when vesicles appeared.\nAll these patients were controlled monthly during the following 4 months. During this time, group A patients presented episodes with a pattern similar to that they had before the experiment was performed. […] The remaining two presented an episode of herpes 2.8 and 3.3 months later."}, "M3 tumor": {"test_system": "M3 tumor", "test": "M3 transplanted mice, tumor area (lidocaine and epidoxorrubicine)", "assay_type": "in vivo"}, "Giardia lamblia": {"test_system": "Giardia lamblia", "test": "Patients with malabsorption syndrome (MAS) caused by Giardia lamblia", "assay_type": "in vivo, human", "conditions": "Volunteer # 1, 7 days of treatment; recurrence one month later", "text": "Volunteer # 1: Type II MAS with positive isolation of Giardia lamblia in duodenal washings and confirmation of the disease by histopathology. […] One month later, patient 1 presented symptoms and signs of recurrence of the disease, with positive isolation of parasites in feces.\nVolunteer # 2: with diffuse abdominal pain, loss of body weight and steatorrhea."}, "[1]": {"conditions": "global anesthesia by intravenous route; one death in more than 6200 patients; cited from earlier work"}, "pseudocholines-terase": {"biological_target": "pseudocholines-terase (Homo sapiens, UniProt P06276)", "sequence (P06276 29-602, species assumed)": "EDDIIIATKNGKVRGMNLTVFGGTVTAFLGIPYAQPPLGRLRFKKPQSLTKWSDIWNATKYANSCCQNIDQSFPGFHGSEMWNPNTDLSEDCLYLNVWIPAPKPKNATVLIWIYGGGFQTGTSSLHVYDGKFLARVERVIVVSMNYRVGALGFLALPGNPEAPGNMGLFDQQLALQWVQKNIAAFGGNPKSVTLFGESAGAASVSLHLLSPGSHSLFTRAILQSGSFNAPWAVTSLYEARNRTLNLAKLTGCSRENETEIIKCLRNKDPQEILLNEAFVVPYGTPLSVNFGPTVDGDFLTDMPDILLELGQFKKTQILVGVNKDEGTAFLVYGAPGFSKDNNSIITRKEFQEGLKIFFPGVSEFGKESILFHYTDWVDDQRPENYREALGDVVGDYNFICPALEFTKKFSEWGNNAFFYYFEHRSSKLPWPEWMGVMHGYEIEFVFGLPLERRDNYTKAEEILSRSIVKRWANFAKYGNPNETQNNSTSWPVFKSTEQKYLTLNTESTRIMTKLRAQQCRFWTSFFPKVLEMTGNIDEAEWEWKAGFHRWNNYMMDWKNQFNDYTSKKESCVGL", "conditions": "cited from earlier work"}, "[2]": {"conditions": "in vivo; cited from earlier work"}, "[3]": {"conditions": "herpes simplex episode, ACV oral+topical, lidocaine 5 ml 2% i.v. twice a day 2 days"}}, "note": "Several values for one entry are separate records, joined by “and”; a condition that tells them apart may be missing. Identical values can stand only once.", "data": [{"smiles": "Nc1nc2c(ncn2COCCO)c(=O)[nH]1", "note": "[ACV, acyclovir]", "values": [{"measurement": "Duration of lesions", "setting": "herpes simplex; [3]", "value": 7, "unit": "days"}, {"measurement": "Duration of symptoms", "setting": "herpes simplex; [3]", "value": 4, "unit": "days"}, {"measurement": "FIRST EPISODE AFTER TREATMENT", "setting": "herpes simplex; individual patients, followed monthly for 4 months", "value": "31 d. and 29 d d. and 33 d d. and 40 d."}]}, {"smiles": "COc1cccc2c1C(=O)c1c(O)c3c(c(O)c1C2=O)C[C@@](O)(C(=O)CO)C[C@@H]3O[C@H]1C[C@H](N)[C@@H](O)[C@H](C)O1", "note": "[epidoxorrubicine]", "values": [{"measurement": "Area (tumor)", "setting": "M3 tumor; day 7 p-t (day 0), lidocaine 0.1 ml 0.05% every 7 days, epidoxorrubicine 0.125 ml 0.2% every 7 days, combination: lidocaine 2 days after epidoxorrubicine", "value": 0.46}, {"measurement": "Area (tumor)", "setting": "M3 tumor; day 10 p-t, regimens as Table 5 footnotes, saline control 0.92", "value": 0.90}, {"measurement": "I/Ø: Percentual increment over tumor in day 0 (day 7 p-t)", "setting": "M3 tumor; day 10 p-t, saline control 103.47", "value": 95.65, "unit": "%"}, {"measurement": "Area (tumor)", "setting": "M3 tumor; day 12 p-t, regimens as Table 5 footnotes, saline control 1.56", "value": 1.56}, {"measurement": "I/Ø: Percentual increment over tumor in day 0 (day 7 p-t)", "setting": "M3 tumor; day 12 p-t, saline control 245.61", "value": 238.04, "unit": "%"}, {"measurement": "Area (tumor)", "setting": "M3 tumor; day 14 p-t, regimens as Table 5 footnotes, saline control 2.06", "value": 2.36}, {"measurement": "I/Ø: Percentual increment over tumor in day 0 (day 7 p-t)", "setting": "M3 tumor; day 14 p-t, saline control 357.57", "value": 413.04, "unit": "%"}, {"measurement": "I/Ø: Percentual increment over tumor in day 0 (day 7 p-t)", "setting": "M3 tumor; day 16 p-t, saline control 516.74", "value": 316.30, "unit": "%"}, {"measurement": "Area (tumor)", "setting": "M3 tumor; day 18 p-t, regimens as Table 5 footnotes, saline control 3.61", "value": 2.41}, {"measurement": "I/Ø: Percentual increment over tumor in day 0 (day 7 p-t)", "setting": "M3 tumor; day 18 p-t, saline control 701.39", "value": 422.83, "unit": "%"}, {"measurement": "Area (tumor)", "setting": "M3 tumor; day 21 p-t, regimens as Table 5 footnotes, saline control 4.61", "value": 3.39}, {"measurement": "I/Ø: Percentual increment over tumor in day 0 (day 7 p-t)", "setting": "M3 tumor; day 21 p-t, saline control 923.86", "value": 637.68, "unit": "%"}, {"measurement": "Area (tumor)", "setting": "M3 tumor; day 23 p-t, regimens as Table 5 footnotes, saline control 5.49", "value": 3.57}, {"measurement": "I/Ø: Percentual increment over tumor in day 0 (day 7 p-t)", "setting": "M3 tumor; day 23 p-t, saline control 1119.69", "value": 676.81, "unit": "%"}, {"measurement": "Area (tumor)", "setting": "M3 tumor; day 25 p-t, regimens as Table 5 footnotes, saline control 6.24", "value": 4.16}, {"measurement": "I/Ø: Percentual increment over tumor in day 0 (day 7 p-t)", "setting": "M3 tumor; day 25 p-t, saline control 1286.33", "value": 804.35, "unit": "%"}, {"measurement": "Area (tumor)", "setting": "M3 tumor; mouse, in vivo", "value": 1.92}]}, {"smiles": "Cc1ncc([N+](=O)[O-])n1CCO", "note": "[metronidazole]", "values": [{"measurement": "Clinical evolution", "setting": "Giardia lamblia", "value": "good evolution"}]}, {"smiles": "CCN(CC)CCOC(=O)c1ccc(N)cc1", "note": "[procaine]", "values": [{"measurement": "deaths", "setting": "[1]", "value": "less than 0.01%"}, {"measurement": "cleavage rate", "setting": "pseudocholines-terase; hydrolysis in blood plasma and liver", "value": 20, "unit": "mg. per minute"}, {"measurement": "half life", "setting": "[2]", "value": "about 0.7 minutes"}]}, {"smiles": "CCCCNc1ccc(C(=O)OCCN(C)C)cc1", "note": "[tetracaine]", "values": [{"measurement": "velocity of cleavage relative to procaine", "setting": "pseudocholines-terase", "value": "about 5 times more slowly than procaine"}]}]}
